Measurements reported in PMC6265332, “A scalable peptide-GPCR language for engineering multicellular communication” (Nature Communications, 2018).
Where a SMILES comes first, the peptide text is derived from it.

Test system: fungal mating GPCRs (Ste2-like, xy.Ste2) expressed in S. cerevisiae strain JTy014
Format: cell-based, Ascomycete species of the code; expressed in S. cerevisiae
Conditions: GPCR of the same code; for Bttm (basal activation) / Span / Top (maximal activation): fit parameter of the dose-response curve, A600-normalised RFP fluorescence, 8 h, triplicate; for Fold Change: fold activation, peptide-treated maximum over water-treated A600-normalised fluorescence; for Hill Slope: four-parameter fit of the dose-response curve (dynamic range)

Compound | Bttm (basal activation) | Span | Top (maximal activation) | Fold Change | Hill Slope
KPHWTTYGYYEPQ [Cp, mature mating peptide ligand 1, Candida parapsilosis] | 36.2 | 217.8 | 254.0 | 7.0 | 0.8
WCYRIGEPCW [Hj, mature mating peptide ligand 1, Hypocrea jecorina] | 53.0 | 376.5 | 429.5 | 8.1 | 0.6
WCTRPGQGC [Pb, mature mating peptide ligand 1, Paracoccidioides brasiliensis] | 20.2 | 196.9 | 217.1 | 10.8 | 0.5
WCMRPGQPCW [Bb, mature mating peptide ligand 1, Beauvaria bassiana] | 25.2 | 218.9 | 244.1 | 9.7 | 1.0
WCGHIGQGC [Pr, mature mating peptide ligand 1, Penicillium chrysogenum] | 27.9 | 179.4 | 207.3 | 7.4 | 0.6
QWCR---IHGQSCW [Nc, mature mating peptide ligand 1, Neurospora crassa] | 27.6 | 259.2 | 286.7 | 10.4 | 0.6
CC[C@H](C)[C@H](NC(=O)[C@H](Cc1c[nH]c2ccccc12)NC(=O)CN)C(=O)NCC(=O)N[C@@H](CCCNC(=N)N)C(=O)N[C@@H](CS)C(=O)NCC(=O)N[C@H](C(=O)N1CCC[C@H]1C(=O)NCC(=O)N[C@@H](CO)C(=O)N[C@@H](CO)C(=O)N[C@@H](CS)C(=O)O)C(C)C [Bm] (H-GWIGRCGVPGSSC-OH; N-terminus and C-terminus assumed) | 30.3 | 128.4 | 158.8 | 5.2 | 1.2
WCGRPGQPC [Bc, mature mating peptide ligand 1, Botrytis cinerea] | 28.6 | 323.3 | 351.9 | 12.3 | 0.7
FCWRPGQPCG [Pd, mature mating peptide ligand 1, Pseudogymnoascus destructans] | 28.8 | 161.2 | 190.0 | 6.6 | 0.7
